Data taken from paper PMC12291851, “Hydrogen Sulfide (H2S)-Donating Formyl Peptide Receptor 2 (FPR2) Agonists: Design, Synthesis, and Biological Evaluation in Primary Mouse Microglia Culture” (Antioxidants, 2025).

What was measured:
[1] = tested on: organotypic hippocampal cultures; set-up: method as in PMID 37775304, PMID 37947648; conditions: nanomolar doses; ref [24],[25]; cited from earlier work
[2] = Cell-free MTT-based H2S release assay; assay type: physicochemical; conditions: 24 h incubation in MEM with 10% DMSO
Experimental: Solutions at different concentrations of each compound in 100 µL of serum-free MEM/10% DMSO with 0.5 mg/mL 3-(4,5-dimethylthiazol-2yl)-2,5-diphenyltetrazolium bromide (MTT) were incubated for 5 h or 24 h in a humidified incubator at 37 °C in 5% CO2 atmosphere. The experimental design comprised blank wells containing only medium and MTT, and a H2S calibration curve obtained by incubating nine solutions at decreasing concentrations (100 µM to 0.01 µM) of NaHS in medium and MTT. At the end of incubation time, the supernatant was removed, the […] crystals were dissolved in 100 µL DMSO/EtOH (1:1 v/v), and absorbance values were read using a Victor 3 plate reader (PerkinElmer, Shelton, CT, USA) at 570 nm. H2S values are expressed as mean ± S.E.M. of the results of three independent experiments conducted in triplicate, and were plotted using GraphPad Prism 7.
To decipher such results and considering the redox properties of H2S, we questioned if H2S released by our compounds in the culture media could interfere with the conversion of MTT (3-[4,5-dimethylthiazol-2-yl]-2,5-diphenyl tetrazolium bromide) to formazan, which is usually related to cell viability. Thus, we ran cell-free experiments in which MTT was used as the substrate to capture the reductive action of H2S. We found, in agreement with Gerő et al., that some of our thioureas and thioamides reduced MTT to formazan after 24 h incubation in MEM with 10% DMSO.

[3] = biological target: T1, FPR2 (Homo sapiens, UniProt P25090); assay: FPR2 desensitization: inhibition of WKYMVM-induced Ca2+ mobilization in FPR2-HL60 cells; assay type: cell-based; set-up: expressed in transfected cells; host or cells: HL-60 cells; conditions: 10 min preincubation, then 5 nM WKYMVM
T1 sequence (P25090 1-351): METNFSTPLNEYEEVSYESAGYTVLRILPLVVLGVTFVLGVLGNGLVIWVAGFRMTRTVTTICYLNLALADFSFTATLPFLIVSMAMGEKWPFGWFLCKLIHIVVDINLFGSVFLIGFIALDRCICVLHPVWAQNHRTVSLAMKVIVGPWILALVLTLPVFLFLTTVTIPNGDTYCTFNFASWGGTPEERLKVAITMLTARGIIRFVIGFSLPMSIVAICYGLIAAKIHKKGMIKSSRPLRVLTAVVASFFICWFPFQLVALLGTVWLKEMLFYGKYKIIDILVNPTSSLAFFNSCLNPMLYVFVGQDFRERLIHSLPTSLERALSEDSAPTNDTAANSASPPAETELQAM
Text: Finally, we assessed the ability of compounds to induce receptor desensitization at FPR2 by measuring the inhibition of Ca^2+ mobilization induced by subsequent treatment with a standard FPR2 agonist (IC50, Table 1) because FPR2 undergoes homologous desensitization after stimulation with agonists, resulting in functional antagonism (IC50, Table 1). […] We also evaluated the effects of the thiourea and thioamide derivatives on Ca^2+ mobilization in FPR1-HL60-transfected cells after stimulation with the FPR1 agonist (IC50, Table 1).

[4] = biological target: T1, FPR2; assay: Ca2+ mobilization (agonist activity) in FPR2-HL60 cells; conditions: for Ca2+ Mobilization HL60-FPR2 Efficacy: response to 5 nM WKYMVM = 100%; for fold less potent at FPR2 than the corresponding urea/amide: ratio of FPR2 EC50 vs 3b, 3c or 4b
[5] = biological target: T1, FPR2; assay: cell-based
[6] = tested on: HepG2 cells; assay: Intracellular H2S release with WSP-1 probe; assay type: cell-based, human
Experimental: All cell culture reagents were purchased from S.I.A.L. S.r.l. (Rome, Italy). WSP-1 (Washington State Probe-1, 3′-methoxy-3-oxo-3H-spiro[isobenzofuran-1,9′-xanthen]-6′-yl 2-(pyridine-2-yl-disulfanyl benzoate), was obtained from Cayman Chemical (Cayman, Ann Arbor, MI, USA). HepG2, human hepatocellular carcinoma cells, was obtained from American Type Culture Collection (ATCC, Bethesda, MD, USA). Human hepatocellular carcinoma cells (HepG2) were cultured in Minimum Essential Eagle’s Medium. This medium was supplemented with 10% (v/v) Fetal Bovine Serum, 1% (v/v) Glutamine and 1% (v/v) Penicillin-Streptomycin, 1% non-essential amino acids. Cells were cultivated at 37 °C with 5% CO2 at saturated humidity.
These experiments were carried out as already described. HepG2 cells were cultured up to about 90% confluence, and 24 h before the experiment cells were seeded into a 96-well flat bottom black plate (50,000 cells per well). After 24 h, the medium was replaced and cells were incubated at 37 °C for 30 min with a 10 mM solution of the fluorescent WSP-1 probe, which is highly sensitive for H2S detection. After incubation, the supernatant was removed and replaced with different concentrations (100, 200, and 300 µM) of the tested compounds dissolved in HBSS buffer. […] ADT 100 µM was used as a slow H2S-donor reference compound. Data were analyzed by one-way ANOVA for repeated measures, followed by post hoc Bonferroni’s multiple comparison test. Results are expressed as mean ± SEM of 3 independent experiments in triplicate. Statistical significance was accepted at a level of p < 0.05.
Next, we assessed the intracellular H2S release of thioureas and thioamides in HepG2 cells. The compounds were tested at different concentrations (100–300 μM) to evaluate if the release was dose-dependent. We also assayed ADT-OH and TIA as reference H2S-donors, and 3a as a negative control. The results were normalized to the fluorescence signal obtained with 100 μM ADT-OH.

[7] = tested on: HepG2 hepatocarcinoma cells; assay: MTT cell viability assay, MTT added directly to treated media; assay type: cell-based, human; conditions: 5% DMSO
Experimental: The cytotoxicity of our compounds was assessed using the well-established MTT assay. HepG2 hepatocarcinoma cells were cultured in Minimum Essential Medium (MEM) (Euroclone, Pero, Italy), supplemented with 10% fetal bovine serum (Euroclone, Pero, Italy), 100 U/mL penicillin, and 100 µg/mL streptomycin sulfate, at 37 °C in a humidified incubator in 5% CO2 atmosphere. For the MTT assays, these cells were cultured up to about 90% confluence and were then seeded at a concentration of 20,000 cells per well in 96-well plates. After 24 h, the culture medium was replaced with solutions at various concentrations of each compound in MEM/DMSO 5% (v/v). Control wells were incorporated in the experimental design, consisting of vehicle (MEM/DMSO 5%) and pure medium controls.
In the first round of cytotoxicity assays, 0.5 mg/mL MTT was added to each well 2 or 24 h from treatment and left to incubate for 3–5 h. In the second round of cytotoxicity assays, at 2 or 24 h after treatment, treated media were removed, the cells were washed once in PBS, and fresh medium containing 0.5 mg/mL MTT was added to each well and left to incubate for 3–5 h.
Subsequently, the supernatant was removed, and the formazan crystals were dissolved in DMSO/EtOH 1:1 (100 µL/well). Absorbance values were then recorded from each well using a Victor 3 plate reader (PerkinElmer, Shelton, CT, USA) at 570 nm. All presented data were obtained from 3 to 5 experiments performed in triplicate. Cell viability values are expressed as mean ± S.E.M. and were plotted using GraphPad Prism 7.
Next, we assessed H2S release in a biological environment using human hepatocarcinoma HepG2 cells as a model. The intracellular release of H2S was detected with the WSP-1 probe, a turn-on fluorescent probe that selectively and irreversibly reacts with H2S. Considering that a high micromolar concentration of the test compounds is required to obtain a robust fluorescent signal, we first evaluated the compounds’ cytotoxicity after 2 h and 24 h of incubation with the MTT assay in HepG2 cells. […] We accounted for this by adding a vehicle control with 5% DMSO and a control without DMSO to our experimental design.

[8] = HepG2, tested concentrations 100-300 μM, 60 min

Ca2+ Mobilization HL60-FPR2 Efficacy [4] [%] | EC50 [5] [µM] | fold less potent at FPR2 than the corresponding urea/amide [4] | Compound | absorbance signal (MTT reduction to formazan) indicative of H2S release [2] | Ca2+ Mobilization HL60-FPR2 IC50 (FPR2 desensitization) [3] | intracellular H2S release, WSP-1 fluorescence signal vs vehicle [6, 8] | MTT absorbance signal vs control ([7]; HepG2, 2 h incubation) | intracellular H2S release, WSP-1 fluorescence signal vs vehicle ([6]; HepG2, at 200 and 300 μM) | other results
145 | 2.3 ± 0.8 | – | N#Cc1ccc(C[C@H](NC(=O)Nc2ccc(F)cc2)C(=S)NCC2(c3ccc(F)c(Cl)c3)CC2)cc1 [7a, (S)-N-[[1-(3-Chloro-4-fluorophenyl)cyclopropyl]methyl]-3-(4-cyanophenyl)-2-[3-(4-fluorophenyl)ureido]propanethioamide] | below the assay’s detection limit | submicromolar concentration | significant fluorescence signal increase at all tested concentrations | – | – | IC50 [3]: 0.3 ± 0.1 µM; intracellular level of H2S vs reference H2S donor ADT ([6]; HepG2, at 200 and 300 μM, p < 0.001 vs. ADT): more than the reference H2S donor ADT; levels of H2S release in HepG2 cells ([6]; summary of WSP-1 results): very high levels of H2S release
65 | 2.2 ± 0.7 | more than 10 fold | N#Cc1ccc(C[C@H](NC(=S)Nc2ccc(F)cc2)C(=O)N2CCc3ccccc32)cc1 [5b, (S)-1-[3-(4-Cyanophenyl)-1-(indolin-1-yl)-1-oxopropan-2-yl]-3-(4-fluorophenyl)thiourea] | significant absorbance signal with slight dose-dependent effects | inactive | – | – | – | –
65 | 1.7 ± 0.7 | more than 10 fold | N#Cc1ccc(C[C@H](NC(=S)Nc2ccc(Br)cc2)C(=O)N2CCc3ccccc32)cc1 [6b, (S)-1-(4-Bromophenyl)-3-[3-(4-cyanophenyl)-1-(indolin-1-yl)-1-oxopropan-2-yl]thiourea] | – | – | – | pronounced signal | statistically significant increase in the fluorescent signal | MTT absorbance signal vs control ([7]; HepG2, 24 h incubation): higher than the control; IC50 [3]: 2.2 ± 0.4 µM
105 | 12 ± 32 | more than 10 fold | N#Cc1ccc(C[C@H](NC(=S)Nc2ccc(F)cc2)C(=O)N2CCc3ccc(F)cc32)cc1 [5c] | significant absorbance signal with slight dose-dependent effects | inactive | – | pronounced signal | statistically significant increase in the fluorescent signal | –

The next lines start with the compound.

Compound | Ca2+ Mobilization HL60-FPR2 Efficacy [4] [%] | EC50 [5] [µM] | fold less potent at FPR2 than the corresponding urea/amide [4] | absorbance signal (MTT reduction to formazan) indicative of H2S release [2] | Ca2+ Mobilization HL60-FPR2 IC50 (FPR2 desensitization) [3] | intracellular H2S release, WSP-1 fluorescence signal vs vehicle [6, 8] | MTT absorbance signal vs control ([7]; HepG2, 2 h incubation) | intracellular H2S release, WSP-1 fluorescence signal vs vehicle ([6]; HepG2, at 200 and 300 μM) | other results
N#Cc1ccc(C[C@H](NC(=O)Nc2ccc(F)cc2)C(=O)N2CCc3ccc(F)cc32)cc1 [3c, (S)-1-[3-(4-cyanophenyl)-1-(6-fluoroindolin-1-yl)-1-oxopropan-2-yl]-3-(4-fluorophenyl)urea] | – | – | – | – | – | – | – | – | protective and anti-inflammatory properties [1]: beneficial protective and anti-inflammatory properties at nanomolar doses
O=c1cc(-c2cccc(O)c2)ss1 [ADT-OH, 5-(5-hydroxyphenyl)-3H-1,2-dithiol-3-one, reference compound] | – | – | – | – | – | statistically significant increase in fluorescence | – | – | –
N#Cc1ccc(C[C@H](NC(=O)Nc2ccc(F)cc2)C(=O)N2CCc3ccccc32)cc1 [3b, (S)-1-[3-(4-cyanophenyl)-1-(indolin-1-yl)-1-oxopropan-2-yl]-3-(4-fluorophenyl)urea] | – | – | – | – | – | – | – | – | protective and anti-inflammatory properties [1]: beneficial protective and anti-inflammatory properties at nanomolar doses
N#Cc1ccc(C[C@H](NC(=S)Nc2ccc(F)cc2)C(=O)NCC2(c3ccc(F)c(Cl)c3)CC2)cc1 [5a, (S)-N-[[1-(3-Chloro-4-fluorophenyl)cyclopropyl]methyl]-3-(4-cyanophenyl)-2-[3-(4-fluorophenyl)thioureido]propanamide] | – | – | – | did not give off any detectable absorbance signal | – | comparable to vehicle | pronounced signal | – | MTT absorbance signal vs control ([7]; HepG2, 24 h incubation): higher than the control; Ca2+ Mobilization HL60-FPR2 EC50 ([4]; HL-60 cells transfected with human FPR2): inactive
[Na+].[SH-] [NaHS, sodium hydrogen sulfide, reference compound] | – | – | – | strong dose-dependent signal | – | – | – | – | –
NC(=O)c1ccc(O)cc1 [TIA, 4-hydroxybenzamide, reference compound] | – | – | – | – | – | – | – | statistically significant increase in fluorescence | –
